Consider twelve compounds from patent US20190307726A1, “PHARMACEUTICAL FORMULATIONS” (Molecular Defenses Corporation, priority 2015, published 2019).

The target of one data set is T1, recombinant rat TrxR (Rattus norvegicus, UniProt O89049).
T1 sequence (O89049 1-499): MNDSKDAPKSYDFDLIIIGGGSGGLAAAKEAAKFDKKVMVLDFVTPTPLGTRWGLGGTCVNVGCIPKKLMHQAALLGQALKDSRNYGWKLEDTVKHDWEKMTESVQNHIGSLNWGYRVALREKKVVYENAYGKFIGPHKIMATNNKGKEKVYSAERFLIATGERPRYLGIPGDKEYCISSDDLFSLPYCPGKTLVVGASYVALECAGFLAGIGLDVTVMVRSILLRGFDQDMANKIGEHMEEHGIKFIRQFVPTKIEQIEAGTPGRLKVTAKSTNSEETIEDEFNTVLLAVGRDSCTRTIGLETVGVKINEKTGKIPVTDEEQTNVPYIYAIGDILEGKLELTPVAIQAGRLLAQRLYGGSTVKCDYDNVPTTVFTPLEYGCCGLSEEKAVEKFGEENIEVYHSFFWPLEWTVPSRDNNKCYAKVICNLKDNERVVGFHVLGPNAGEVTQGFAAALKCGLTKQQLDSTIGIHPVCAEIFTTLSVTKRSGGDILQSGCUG
The following applies: cited from earlier work.

Data set [1] deals with MDR Mycobacterium tuberculosis. Put plainly: Sensitivity of Mycobacterium tuberculosis to ebselen, radiometric BACTEC 460 system. Format: cell-based. The following applies: medium with 5 g/l albumin; dependent upon albumin saturation.
The next data set has as its system Gor- DHB4 E. coli. To be noted: cited from earlier work.
For a further data set, the system named is Staphylococcus aureus. To be noted: cited from earlier work.
In a further data set the test system is gshA- DHB4 E. coli. The following applies: cited from earlier work.
In the next data set the target is E. coli Trx (Escherichia coli, UniProt P0AA25). The data set is described as follows: Oxidation of reduced E. coli Trx-(SH)2, fluorescence spectroscopy. Format: biochemical.
Chain of E. coli Trx (P0AA25 whole entry): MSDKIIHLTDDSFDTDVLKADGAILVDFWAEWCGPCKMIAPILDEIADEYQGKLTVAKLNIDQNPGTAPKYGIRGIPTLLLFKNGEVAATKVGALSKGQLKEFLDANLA
For another data set, the system named is wild type DHB4 E. coli. The following applies: cited from earlier work.
The subject of a further data set is HEK 293T cells. To be noted: 24 h incubation, XTT; cited from earlier work.
The next data set concerns the target E. coli TrxR (Escherichia coli, UniProt P0A9P4). The following applies: cited from earlier work.
The conditions of data set [2]: 30 μM compound, 0.5 mM GSH, 0.5 mM H2O2, NADPH consumption; cited from earlier work.

Chain of E. coli TrxR (P0A9P4 2-321): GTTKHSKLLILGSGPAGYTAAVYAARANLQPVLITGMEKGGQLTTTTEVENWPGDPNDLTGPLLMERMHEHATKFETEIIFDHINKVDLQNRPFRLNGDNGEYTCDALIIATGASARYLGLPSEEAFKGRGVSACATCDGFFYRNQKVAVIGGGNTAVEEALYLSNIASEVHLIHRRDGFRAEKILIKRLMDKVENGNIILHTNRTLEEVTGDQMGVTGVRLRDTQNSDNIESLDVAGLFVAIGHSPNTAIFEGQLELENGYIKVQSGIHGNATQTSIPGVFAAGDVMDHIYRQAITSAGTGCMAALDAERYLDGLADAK

Regarding `CC(C)(C)n1[se]c2ccccc2c1=O` [EbSe 4], the “inhibition of mammalian TrxR (in words)” value at recombinant rat TrxR is recorded as “some activity to inhibit mammalian TrxR”.
With `O=c1c2ccccc2[se]n1-c1ccccc1` [EbSe 6, 2-phenyl-1,2-benzisoselenazol-3(2H)-one], in data set [1], the “MIC, Mycobacterium tuberculosis” value is reported as “lower than 20 mg/I”. For the same compound, the “MIC for Gor- DHB4 E. coli” value in the data set with Gor- DHB4 E. coli is 15 µM. For the same compound, in the data set on Staphylococcus aureus, the “difference in sensitivity, Staphyloccus aureus versus E. coli” value was 100 fold. In addition, the “concentration inhibiting growth of methicillin resistant Staphylococcus aureus” value in the data set with Staphylococcus aureus (methicillin resistant Staphylococcus aureus) is 0.20 μg per ml. For the same compound, in the data set with Staphylococcus aureus (strain 209P), the “concentration inhibiting growth of Staphylococcus aureus 209P” value was 0.20 µg/mL. Moreover, the “MIC for gshA- DHB4 E. coli” value with gshA- DHB4 E. coli is 26 µM. The “second-order rate constant, reduction by reduced E. coli Trx” value on E. coli Trx is 2e+07 M⁻¹ s⁻¹. Moreover, in the data set with wild type DHB4 E. coli, the “MIC for wild type DHB4 E. coli” value is 40 µM.
Consider `O=c1c2ccccc2[se]n1-c1ccc(Cl)cc1` [EbSe 7], for which the “MIC for Gor- DHB4 E. coli” value in the data set on Gor- DHB4 E. coli was 23 µM. In the data set with gshA- DHB4 E. coli, the “MIC for gshA- DHB4 E. coli” value is 20 µM. In addition, the “MIC for wild type DHB4 E. coli” value in the data set with wild type DHB4 E. coli is 34 µM.
For `Cc1cc(Cl)ccc1-n1[se]c2ccccc2c1=O` [EbSe 8], the “MIC for Gor- DHB4 E. coli” value in the data set on Gor- DHB4 E. coli is 24 µM. The “MIC for gshA- DHB4 E. coli” value in the data set with gshA- DHB4 E. coli was 13 µM. In addition, the “MIC for wild type DHB4 E. coli” value in the data set with wild type DHB4 E. coli was 47 µM.
Take `O=C(O)c1ccccc1-n1[se]c2ccccc2c1=O` [EbSe 9]: in the data set on Gor- DHB4 E. coli, the “MIC for Gor- DHB4 E. coli” value is 31 µM. In addition, in the data set on gshA- DHB4 E. coli, the “MIC for gshA- DHB4 E. coli” value was 24 µM. In addition, in the data set with wild type DHB4 E. coli, the “MIC for wild type DHB4 E. coli” value was 49 µM.
As for `O=c1c2ccccc2[se]n1-c1ccc(Cl)cn1` [EbSe 11], the IC50 (usually the concentration needed to halve the response being measured) with HEK 293T cells is > 160 µM; on E. coli TrxR (read-out: IC50 for E. coli TrxR, 100 nM TrxR, 2 μM Trx, 240 μM NADPH, 1 mM DTNB), > 40 µM. In addition, the “MIC for Gor- DHB4 E. coli” value in the data set on Gor- DHB4 E. coli is “No Inh”. The “MIC for gshA- DHB4 E. coli” value in the data set on gshA- DHB4 E. coli is “No Inh”. The inhibition constant (Ki) (in general, the equilibrium dissociation constant of an inhibitor or competing ligand from its target) on E. coli TrxR (read-out: Ki for E. coli TrxR, Dixon plot, 6 nM TrxR, Trx 1, 2 or 4 μM) was 0.3 µM. Also, the “Relative GPx activity” value in data set [2] was 0.87. The “MIC for wild type DHB4 E. coli” value in the data set with wild type DHB4 E. coli was “No Inh”.
As for `O=c1c2ccccc2[se]n1-c1ncccc1[N+](=O)[O-]` [EbSe 12], the IC50 in the data set on HEK 293T cells was 80 µM. In addition, the “MIC for Gor- DHB4 E. coli” value in the data set with Gor- DHB4 E. coli is “No Inh”. In the data set on gshA- DHB4 E. coli, the “MIC for gshA- DHB4 E. coli” value is “No Inh”. In addition, in data set [2], the “Relative GPx activity” value was 0.93. For the same compound, the “MIC for wild type DHB4 E. coli” value in the data set with wild type DHB4 E. coli is on record as “No Inh”.
For the compound `O=c1c2ccccc2[se]n1-c1ccncc1` [EbSe 13], the “MIC for Gor- DHB4 E. coli” value in the data set on Gor- DHB4 E. coli is 24 µM. The “MIC for gshA- DHB4 E. coli” value in the data set with gshA- DHB4 E. coli was 21 µM. Moreover, the “MIC for wild type DHB4 E. coli” value in the data set with wild type DHB4 E. coli is 45 µM.
In the case of `O=c1c2ccccc2[se]n1CCn1[se]c2ccccc2c1=O` [EbSe 14], in the data set on Gor- DHB4 E. coli, the “MIC for Gor- DHB4 E. coli” value is 19 µM. Further, the “MIC for gshA- DHB4 E. coli” value in the data set with gshA- DHB4 E. coli is 23 µM. Besides, in [2], the “Relative GPx activity” value was “No activity”. Besides, the “MIC for wild type DHB4 E. coli” value in the data set with wild type DHB4 E. coli is 23 µM.
As to `O=c1c2ccccc2[se]n1CCCCCCn1[se]c2ccccc2c1=O` [EbSe 16], in the data set on Gor- DHB4 E. coli, the “MIC for Gor- DHB4 E. coli” value is 35 µM. Also, the “MIC for gshA- DHB4 E. coli” value in the data set with gshA- DHB4 E. coli was 20 µM. Further, in the data set with wild type DHB4 E. coli, the “MIC for wild type DHB4 E. coli” value was 20 µM.
In the case of `CCOC(=O)c1cccnc1[Se]Nc1ccc(Cl)cn1` [compound 2], the “MIC for Gor- DHB4 E. coli” value with Gor- DHB4 E. coli is on record as “No Inh”. The “MIC for gshA- DHB4 E. coli” value with gshA- DHB4 E. coli is “No Inh”. Moreover, the “MIC for wild type DHB4 E. coli” value in the data set with wild type DHB4 E. coli is “No Inh”.
For `O=C(Nc1ccccc1)c1ccccc1[Se][Se]c1ccccc1C(=O)Nc1ccccc1` [ebselen diselenide], the “second-order rate constant, reduction by reduced E. coli Trx” value at E. coli Trx was 1700 M⁻¹ s⁻¹.
